16 molecules from article PMC8815882, “Screening the pandemic response box identified benzimidazole carbamates, Olorofim and ravuconazole as promising drug candidates for the treatment of eumycetoma” (PLoS Neglected Tropical Diseases, 2022) can be followed below.

SMILES strings stand for the structures. Like-named read-outs stand apart in the source and are kept apart here.

For this test, the system named is M. mycetomatis genome strain MM55. Description: CLSI M38-A2 based in vitro susceptibility screening (XTT or resazurin), growth at fixed concentration. It counts as cell-based, Madurella mycetomatis. Conditions: Madurella mycetomatis; for Percent fungal survival at 100 µM: read-out: Percentage survival at 100um, 100 uM A (second replicate column). (Tetrazolium assays rely on reduction of a dye to a coloured formazan, in cell work by metabolically active cells.)

The mark [1] stands for this setting: 25 uM, mean of replicates, read-out: Percentage survival at 25um, 25 uM mean.
Where [2] appears, read: 25 uM, replicate A, read-out: Percentage survival at 25um, 25 um A.
Where [3] appears, read: 25 uM, replicate B, read-out: Percentage survival at 25um, 25 uM B.
[4] abbreviates: 25 uM, replicate C, read-out: Percentage survival at 25um, 25 uM C.
Setting [5] is: mean of replicates, read-out: Percentage survival at 100um, 100 uM mean.
[6] abbreviates: replicate 1, read-out: Percentage survival at 100um, 100 uM A.
[7] abbreviates: replicate 2, read-out: Percentage survival at 100um, 100 uM A.
Where [8] appears, read: replicate 3, read-out: Percentage survival at 100um, 100 uM A.
Setting [9] is: 25 uM, mean, read-out: Percentage survival at 25um, 25 uM mean.
Where [10] appears, read: mean, read-out: Percentage survival at 100um, 100 uM mean.
Setting [11] is: replicate (first column), read-out: Percentage survival at 100um, 100 uM A.
Setting [12] is: replicate (second column), read-out: Percentage survival at 100um, 100 uM A.
The mark [13] stands for this setting: replicate (third column), read-out: Percentage survival at 100um, 100 uM A.
The mark [14] stands for this setting: 25 uM, mean of three replicates, read-out: Percentage survival at 25um, 25 uM mean.
Setting [15] is: mean of three replicates, read-out: Percentage survival at 100um, 100 uM mean.
Where [16] appears, read: first replicate column, read-out: Percentage survival at 100um, 100 uM A.
Where [17] appears, read: second replicate column, read-out: Percentage survival at 100um, 100 uM A.
[18] abbreviates: third replicate column, read-out: Percentage survival at 100um, 100 uM A.
[19] abbreviates: 25 uM, mean of replicates, MM55, read-out: Percentage survival at 25um, 25 uM mean.
[20] abbreviates: 25 uM, replicate A, MM55, read-out: Percentage survival at 25um, 25 um A.
Setting [21] is: 25 uM, replicate B, MM55, read-out: Percentage survival at 25um, 25 uM B.
Where [22] appears, read: 25 uM, replicate C, MM55, read-out: Percentage survival at 25um, 25 uM C.
[23] abbreviates: mean of replicates, MM55, read-out: Percentage survival at 100um, 100 uM mean.
The mark [24] stands for this setting: replicate 1, MM55, read-out: Percentage survival at 100um, 100 uM A.
Where [25] appears, read: replicate 2, MM55, read-out: Percentage survival at 100um, 100 uM A.
[26] abbreviates: replicate 3, MM55, read-out: Percentage survival at 100um, 100 uM A.
Setting [27] is: 25 uM, mean of three, M. mycetomatis MM55, read-out: Percentage survival at 25um, 25 uM mean.
The mark [28] stands for this setting: 25 uM, replicate A, M. mycetomatis MM55, read-out: Percentage survival at 25um, 25 um A.
Setting [29] is: 25 uM, replicate B, M. mycetomatis MM55, read-out: Percentage survival at 25um, 25 uM B.
Where [30] appears, read: 25 uM, replicate C, M. mycetomatis MM55, read-out: Percentage survival at 25um, 25 uM C.
The mark [31] stands for this setting: mean of three, M. mycetomatis MM55, read-out: Percentage survival at 100um, 100 uM mean.
[32] abbreviates: replicate 1, M. mycetomatis MM55, read-out: Percentage survival at 100um, 100 uM A (first replicate column).
Where [33] appears, read: replicate 2, M. mycetomatis MM55.
Where [34] appears, read: replicate 3, M. mycetomatis MM55, read-out: Percentage survival at 100um, 100 uM A (third replicate column).

Turning to `O=C(c1ccccc1)N1CCN(c2ccccc2NC(=O)C(Cl)(Cl)Cl)CC1` [MMV001014], the activity at 25 µM is 76% under setting [1], 69% under setting [2], 93.3% under setting [3] and 65.7% under setting [4]. The activity at 100 µM turned out to be 78.9% under setting [5], 98.3% under setting [6], 71.3% under setting [7] and 67.2% under setting [8].

With `O=C(NC12CC3CC(CC(C3)C1)C2)c1cc2ccccc2[nH]1` [MMV1578577], the activity at 25 µM under setting [2] came to 79.8%; the activity at 25 µM (read-out: Percentage survival at 25um, 25 uM B) was 67.1%; the activity at 25 µM (read-out: Percentage survival at 25um, 25 uM C) was found to be 75.7%; the activity at 25 µM (read-out: Percentage survival at 25um, 25 uM mean) worked out at 74.2%. Besides, the activity at 100 µM by setting is: under setting [5], 65.6%; under setting [6], 59.6%; under setting [7], 65.1%; under setting [8], 72.1%.

In the case of `Oc1ccc2[nH]c(-c3ccccc3)nc2c1` [MMV292173], the activity at 25 µM came to 89.9% under setting [1], 82.5% under setting [2], 95.1% under setting [3] and 92% under setting [4]. Also, the activity at 100 µM under setting [5] was 93.2%, the activity at 100 µM under setting [6] was found to be 100%, the activity at 100 µM under setting [7] came to 85.4% and the activity at 100 µM under setting [8] amounted to 94.1%.

Turning to `O=c1ccc2ncc(=O)n3c2n1CC3CN1CCC(NCc2cc3c(cn2)OCCC3)CC1` (centres unmarked) [MMV1578568], the activity at 25 µM under setting [9] is 66.7%, the activity at 25 µM under setting [2] is 82.6%, the activity at 25 µM under setting [3] was 42.3% and the activity at 25 µM under setting [4] worked out at 75.2%. The activity at 100 µM was determined as 63.3% under setting [10], 26.3% under setting [11], 74.3% under setting [12] and 89.2% under setting [13].

`CCCCc1ccc(-c2cc(C(=O)O)cc(-c3ccc(Cl)cc3)n2)cc1` [MMV1580852]: the activity at 25 µM under setting [14] came to 33.8%, the activity at 25 µM under setting [2] worked out at 3.56%, the activity at 25 µM under setting [3] stood at 69.1% and the activity at 25 µM under setting [4] came out at 28.7%. In addition, the activity at 100 µM was 4.07% under setting [15]; 5.06% (replicate 1, read-out: Percentage survival at 100um, 100 uM A (first replicate column)); 7.62% (replicate 3, read-out: Percentage survival at 100um, 100 uM A (third replicate column)). For the same molecule, the Percent fungal survival at 100 µM (replicate 2) is -0.471%.

For the molecule `Nc1nc(=O)c(Br)c(-c2cccc(Cl)c2)[nH]1` [MMV1645152], the activity at 25 µM under setting [14] worked out at 84.5%, the activity at 25 µM under setting [2] came out at 79.7%, the activity at 25 µM under setting [3] amounted to 91.3% and the activity at 25 µM under setting [4] came to 82.6%. Also, the activity at 100 µM was 87.5% under setting [16], 75.8% under setting [15], 77.5% under setting [17] and 62.2% under setting [18].

Take `CCn1cc(C(=O)O)c(=O)c2cc(F)c(N3CCNC(C)C3)c(F)c21` (centres unmarked) [MMV002350]: the activity at 25 µM under setting [19] is 91.3%, the activity at 25 µM under setting [20] was 97.9%, the activity at 25 µM under setting [21] was 93.8% and the activity at 25 µM under setting [22] was found to be 82.3%. In addition, the activity at 100 µM is, setting by setting: under setting [23], 89%; under setting [24], 92.8%; under setting [25], 92.2%; under setting [26], 82.2%.

As for `Cc1[nH]c2ccccc2c1CC(=O)N[C@@H](Cc1ccccc1)C(=O)N(C)c1ccccc1` [MMV1580798], the activity at 25 µM stood at 85.4% under setting [14], 85.6% under setting [2], 92.9% under setting [3] and 77.6% under setting [4]. For the same molecule, the activity at 100 µM under setting [16] was 87.3%, the activity at 100 µM under setting [15] came to 82.4%, the activity at 100 µM under setting [17] is 79.6% and the activity at 100 µM under setting [18] came to 80.5%.

On to `COc1ccc2cc3[n+](cc2c1OCCN(CCn1cncn1)Cc1ccc(F)cc1F)CCc1cc2c(cc1-3)OCO2` [MMV1593540], for which the activity at 25 µM is, setting by setting: under setting [27], 87.6%; under setting [28], 96.5%; under setting [29], 90.9%; under setting [30], 75.5%. Also, the activity at 100 µM under setting [31] was 84.2%, the activity at 100 µM under setting [32] came to 80.5% and the activity at 100 µM under setting [34] amounted to 88.4%. The Percent fungal survival at 100 µM under setting [33] amounted to 83.8%.

As for `O=C(Nc1nnc(-c2ccccc2)o1)c1ccc(F)cc1` [MMV1578578], the activity at 25 µM is, setting by setting: under setting [27], 24.9%; under setting [28], 69.5%; under setting [29], 1.3%; under setting [30], 3.74%. The activity at 100 µM runs as follows: under setting [31], 0.7%; under setting [32], -1.02%; under setting [34], 1.43%. Further, the Percent fungal survival at 100 µM under setting [33] stood at 1.69%.

Turning to `CCCCCCC1c2ccc(O)cc2Oc2cc(O)ccc21` [MMV1593535], the activity at 25 µM was determined as 72.3% under setting [9], 72.8% under setting [2], 89.7% under setting [3] and 54.6% under setting [4]. In addition, the activity at 100 µM under setting [10] was 21.5%, the activity at 100 µM under setting [11] turned out to be 10.9%, the activity at 100 µM under setting [12] was 14.4% and the activity at 100 µM under setting [13] was found to be 39.1%.

Take `CC(=O)Nc1cc(NS(=O)(=O)c2ccc(Cl)cc2)cc2c(Cl)n[nH]c12` [MMV1579779]: the activity at 25 µM under setting [1] came out at 83.8%, the activity at 25 µM under setting [2] was 80.2%, the activity at 25 µM under setting [3] amounted to 89.2% and the activity at 25 µM under setting [4] came to 82.1%. In addition, the activity at 100 µM was found to be 82.2% under setting [5], 78.5% under setting [6], 74.6% under setting [7] and 93.4% under setting [8].

Take `CCC[C@H](NC(=O)[C@@H]1[C@H]2CCC[C@H]2CN1C(=O)[C@@H](NC(=O)[C@@H](NC(=O)c1cnccn1)C1CCCCC1)C(C)(C)C)C(=O)C(=O)NC1CC1` [MMV1580494]: the activity at 25 µM reads like this: under setting [19], 85.9%; under setting [20], 89.9%; under setting [21], 95.2%; under setting [22], 72.5%. Moreover, the activity at 100 µM reads like this: under setting [23], 89.5%; under setting [24], 96.1%; under setting [25], 101%; under setting [26], 71.1%.

Take `Nc1nc2c(ncn2/C=C2/CC2(CO)CO)c(=O)[nH]1` [MMV1782210]: the activity at 25 µM came out at 94.9% under setting [19], 102% under setting [20], 100% under setting [21] and 83.3% under setting [22]. Moreover, the activity at 100 µM turned out to be 81.8% under setting [23], 89.9% under setting [24], 79.8% under setting [25] and 75.6% under setting [26].

Consider `COc1c(F)c(F)cc2c(=O)c(C(=O)O)cn(C3CC3)c12` [MMV1480967], for which the activity at 25 µM under setting [1] was determined as 104%, the activity at 25 µM under setting [2] was determined as 87.1%, the activity at 25 µM under setting [3] worked out at 91% and the activity at 25 µM under setting [4] amounted to 135%. For the same molecule, the activity at 100 µM by setting is: under setting [5], 77.9%; under setting [6], 85.8%; under setting [7], 67.1%; under setting [8], 80.8%.

Consider `Cc1nc(Nc2ccc(F)cc2)nc(N2CCc3ccccc3C2C)c1C` (centres unmarked) [MMV030787], for which the activity at 25 µM by setting is: under setting [9], 63.9%; under setting [2], 74.6%; under setting [3], 56.2%; under setting [4], 61.1%. For the same molecule, the activity at 100 µM reads like this: under setting [10], 67.5%; under setting [11], 53.1%; under setting [12], 63.5%; under setting [13], 86%.
